Values after ≈ are worked out from the molar mass of the structure shown.
Columns and labels:
Assay type in all cases: physicochemical
[1] = Solubility in solutions of basic substances (Experimental Example 7)
Protocol: (§1) Excess amounts of the Compound A were dispersed in aqueous solutions containing various surfactants and additives, respectively. In each case, the solubility of the compound was determined by measuring the light absorbance at 277 nm with the filtrate. For non-aqueous vehicles marked with *, the corresponding solubility of the compound was judged by eye-measurement.
Using the same procedures as stated in Experimental Example 6, solubility measurements were carried out.

[2] = Solubility in water; conditions: 25° C., as free base form
[3] = Solubility in aqueous solutions of surfactants/additives and non-aqueous vehicles (Experimental Example 6)
Protocol: as §1

[4] = Coloration of Compound A on exposure to oxygen, heat or light

Compound `NC(=O)c1nc[nH]c1O` [Compound A, 4-carbamoyl-5-hydroxyimidazole] has a solubility ([1]; pH 8.2, 5% L-lysine, pH of solvent 8.20) of 10700 µg/mL (≈ 84.2 mM), a solubility ([1]; pH 8.42, aqueous buffer, NaHCO3-Na2CO3 buffer, pH of solvent 8.42) of 26700 µg/mL (≈ 210 mM) and a solubility ([1]; pH 8.44, 5% borax, pH of solvent 8.44) of 22200 µg/mL (≈ 175 mM). For the same compound, the solubility ([1]; pH 8.5, 0.5% NaOH, pH of solvent 8.50) was 21400 µg/mL (≈ 168 mM), the solubility ([1]; pH 8.56, 5% trishydroxy methylamino methane, pH of solvent 8.56) was 25700 µg/mL (≈ 202 mM) and the solubility ([1]; pH 8.64, 1% ethanolamine, pH of solvent 8.64) was 24900 µg/mL (≈ 196 mM). It also gave a solubility ([1]; pH 8.69, 5% L-arginine, pH of solvent 8.69) of 33500 µg/mL (≈ 264 mM), a solubility [2] of roughly 4700 µg/mL (≈ 37 mM) and a solubility ([3]; 5% amycol no. 1) of 5100 µg/mL (≈ 40.1 mM). The solubility ([3]; 5% ethylurea) was 5600 µg/mL (≈ 44.1 mM), the solubility ([3]; 5% levulinic acid) was 6300 µg/mL (≈ 49.6 mM) and the solubility ([3]; 5% nicotinic amide) was 7200 µg/mL (≈ 56.6 mM). It also gave a solubility ([3]; 5% polyoxyethylene hydrogenated castor oil, organic solvent or mixture) of 4500 µg/mL (≈ 35.4 mM), a solubility ([3]; 5% polyoxyethylene sorbitan monooleate) of 4600 µg/mL (≈ 36.2 mM) and a solubility ([3]; 5% sodium lauryl sulfate) of 4700 µg/mL (≈ 37 mM). The solubility ([3]; 5% sodium salicylate) was 6500 µg/mL (≈ 51.1 mM), the solubility ([3]; 5% tartaric acid) was 7000 µg/mL (≈ 55.1 mM) and the solubility ([3]; 10% mannitol) was 4600 µg/mL (≈ 36.2 mM). For the same compound, the “Solubility (in words)” value ([3]; 10% sodium deoxycholate) was “white gel”, the solubility ([3]; corn oil, organic solvent or mixture) was less than 2000 µg/mL and the solubility ([3]; cotton seed oil, organic solvent or mixture) was less than 2000 µg/mL. It also gave a solubility ([3]; ethanol, organic solvent or mixture) of less than 2000 µg/mL, a solubility ([3]; glycerine, organic solvent or mixture) of roughly 3000 µg/mL (≈ 23.6 mM) and a solubility ([3]; n,n-dimethylacetamide, organic solvent or mixture) of less than 2000 µg/mL. It also gave a solubility ([3]; polyethylene glycol, organic solvent or mixture) of less than 2000 µg/mL, a solubility ([3]; propylene glycol, organic solvent or mixture) of roughly 5000 µg/mL (≈ 39.3 mM) and a solubility ([3]; saturated aspartic acid) of 5400 µg/mL (≈ 42.5 mM). The “Solubility (in words)” value ([3]; saturated gentisic acid) was “white gel”, the solubility ([3]; saturated glutamic acid) was 5300 µg/mL (≈ 41.7 mM) and the solubility ([3]; sesame oil, organic solvent or mixture) was less than 2000 µg/mL. The solubility ([3]; water) was 4700 µg/mL (≈ 37 mM) and the coloration / instability [4] was “so unstable that it is easily colored upon exposure to oxygen, heat, or light”.

— patent US4582845A, “Pharmaceutical composition for injection” (Sumitomo Pharmaceuticals Co., Ltd., priority 1980, dated 1986)
